What is called inhibition is the relative decrease from the control value, in per cent.

The source made the active and inactive calls.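 How the source made its calls: active means at least 15% inhibition at the top concentration together with an EC50 under 10 microM; inactive means the rest.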

This passage reports inhibition results from PubChem BioAssay AID652101 (NMMLSC, 2013).

The first experiment can be described thus: potency against LAMP-1 externalization in TALL-104 – TALL-104 cells, flow cytometry, CherryPick01, dose response (AID 652101).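 Further: 0% = stimulated DMSO control and 100% = unstimulated control wells.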 As to conditions: TALL-104 lytic granule exocytosis, LAMP-1 flow cytometry; at 15.1 µM (top of the series).
For the molecule `CCOc1cccc(CNCCc2c(C)[nH]c3ccc(OC(F)(F)F)cc23)c1O`, the inhibition is 82.3% (inactive). Same read-out and setting: the same measure for `COC(=O)c1ccc(NC(=O)CSc2nc3ccc(N4C(=O)C5C6C=CC(C6)C5C4=O)cc3s2)cc1` (stereo not given): 92.5% (inactive). On to `CC(C)CNC(=O)c1c(N)n(Cc2ccc3c(c2)OCO3)c2nc3ccccc3nc12`, for which the inhibition was 69.2% (inactive).

The experiment is the same for the next values; noted with them: TALL-104 lytic granule exocytosis, LAMP-1 flow cytometry; at 15.1 µM (top of the series); stimulated with 1 µM thapsigargin, 50 nM PMA.
In the case of `CCC(C)Nc1nc(-c2cccc(OC)c2O)nc2ccccc12` (stereo not given), the inhibition is 101% (inactive). On the same count and under the same terms, next, `COc1cccc2c1C(=O)c1ccc3ccccc3c1C2=O`: 18.2% (inactive); `CCOc1ccc(C(=O)CCN2CCCCCC2)cc1`: 91.4% (inactive); `CCCCN(CCCC)c1nc(-c2ccncc2)nc2ccccc12`: 85.6% (inactive). The same measure, in the same setting: next, `OCCN1CCN(CC(O)COc2ccc(C34CC5CC(CC(C5)C3)C4)cc2)CC1` (stereo not given): 85.8% (inactive); `Cn1c(=O)c(NC2CCCCC2)c2c3c(cccc31)C(=O)c1ccccc1-2`: -4.68% (inactive); `COC(=O)c1c(NC(=O)c2ccc(C(=O)c3ccccc3)cc2)sc2c1CC(C)(C)NC2(C)C`: 90.2% (inactive). As for `CN1CCN(CCCNC(=O)c2ccc(/C=C3\Sc4ccccc4N(Cc4ccc(F)cc4)C3=O)cc2)CC1`, the inhibition was 89.7% (inactive). Same read-out and setting: the same measure for `O=C1OC(c2ccccc2)(c2cc(Br)ccc2O)c2ccccc21` (stereo not given): 109% (inactive); for `CCCCCc1c(-c2cccc(F)c2)ncn1CCc1ccccc1OC`: 102% (inactive). For `O=C(Nc1nc2ccc(SC(F)F)cc2s1)c1ccc(NS(=O)(=O)c2ccc(F)c(F)c2)cc1`, the inhibition is 105% (inactive).

`O=CNc1cc(-c2ccsc2)cn2c(-c3ccccc3)cnc12`: the inhibition is 105% (inactive). Same read-out and setting: next, `CCCCNc1c(-c2ccc(OC)c(SC3CCCCC3)c2)nc2ccc(C)cn12`: 103% (inactive); `COc1cccc(-c2cnc3c(NC=O)cc(-c4ccccc4)cn23)c1`: 101% (inactive); `COc1ccc(N(CC(=O)NCCSc2ccccn2)S(=O)(=O)c2ccccc2)c(OC)c1`: -7.92% (inactive).

`CC(Nc1nc(N2CCNCC2)nc2ccccc12)c1ccccc1` (stereo not given): the inhibition is 104% (inactive). Still for that read-out and setting: next, `CC(C)(c1ccccc1)c1ccc(OCC(O)CNC2CCN(Cc3ccccc3)CC2)cc1` (stereo not given): 31.5% (inactive); `CC(=O)Nc1cc(-c2ccccc2F)cn2c(-c3ccccc3)cnc12`: 106% (inactive); `COc1cc2c(cc1OC)C(c1ccc(-c3ccc(Cl)c(Cl)c3)o1)=NCC2`: 88.4% (inactive). Still for that read-out and setting: the same measure for `COc1ccc([N+](=O)[O-])cc1Nc1c2ccccc2nc2ccccc12`: 79.8% (inactive); for `COC(=O)[C@]12CCCCC=C1N(Cc1cccc3ccccc13)C(=O)[C@H](CC(=O)NCc1ccc(OC)c(OC)c1)C2`: 108% (inactive); for `C=C(C)COc1ccc(-c2n[nH]c(C)c2-c2ccc(OC)cc2)c(O)c1`: 106% (inactive). Regarding `O=c1c2ccccc2sn1-c1ccc(Cl)cc1`, the inhibition is 103% (inactive).

Take `COc1ccc(N2C(=O)CC(Sc3n[nH]c(-c4ccccc4)n3)C2=O)cc1` (stereo not given): the inhibition was 95.2% (inactive). On the same count and under the same terms, next, `Cn1c(=O)c(N)c2c3c(c(Br)ccc31)C(=O)c1ccccc1-2`: 1.57% (inactive). The same measure, in the same setting: the same measure for `CCN(CC)CCOC(=O)c1ccc(N/C=C(/C#N)c2nc(-c3ccc(OC)cc3)cs2)cc1`: 56.9% (inactive); for `COc1ccc(-c2cc(NC=O)c3ncc(-c4ccccc4)n3c2)cc1OC`: 89.8% (inactive); for `O=c1c(Cl)c2oc3ccccc3nc-2c2ccccc12`: -0.07% (inactive). On the same count and under the same terms, next, `CN(C)CCCNC(=S)NCC(c1ccc(Cl)cc1Cl)c1c[nH]c2ccccc12` (stereo not given): 92.7% (inactive); `CCOC(=O)c1c(NC(=O)CSc2nnnn2-c2ccccc2OCC)sc2c1CC(C)(C)NC2(C)C`: 84.6% (inactive); `OC(CNCC(c1ccc(Cl)cc1Cl)c1c[nH]c2ccccc12)c1ccccc1` (stereo not given): 81.7% (inactive). Take `CN(C)CCCN(C(=O)CCSc1ccccc1)c1nc2cc3c(cc2s1)OCO3`: the inhibition is 90.1% (inactive). As for `COCCNc1nc(NCc2cccc(OC)c2)c2sc(-c3ccccc3)cc2n1`, the inhibition is 105% (inactive). Take `CN1CCN(c2ccc(NC(=O)c3ccc(-c4ccc(Cl)cc4)o3)cc2)CC1`: the inhibition is 97.9% (inactive). Same read-out and setting: next, `N#Cc1c(NC(=O)c2ccc(Br)o2)n(-c2ccccc2)c2nc3ccccc3nc12`: -12.1% (inactive); `Cc1ccc(-c2nn(-c3ccccc3)cc2CN(Cc2ccccc2)C(=O)c2ccco2)o1`: 105% (inactive); `CCOC(=O)c1cnc2ccc(OCC)cc2c1N(C)Cc1ccccc1`: 69.7% (inactive). Regarding `Cn1cncc1C#Cc1c(-c2ccc(S(C)(=O)=O)cc2)sc2ccccc12`, the inhibition is 102% (inactive). On to `NCCc1c(-c2ccccc2)n(-c2ccccc2)c2ccccc12`, for which the inhibition is 68.2% (inactive).

`Cn1sc(=O)c2cc(S(=O)(=O)NC3CC3)ccc21`: the inhibition is 103% (inactive).

Regarding `Cc1cc(C)c2sc(N(CCCN(C)C)C(=O)c3ccc(S(=O)(=O)N4CCc5ccccc5C4)cc3)nc2c1`, the inhibition is -21.4% (inactive). The same measure, in the same setting: next, `COC(=O)c1ccc(NCc2c(O)ccc(O)c2Br)cc1Cl`: 72.6% (inactive).

For the molecule `OC1(c2cccc(C(F)(F)F)c2)CCN(c2ncnc3c2[nH]c2ccc(F)cc23)CC1`, the inhibition is 107% (inactive). As to `CCc1nc2ccc(C(=O)NC3CCN(Cc4ccccc4)CC3)cn2c1N(C)Cc1cc2ccccc2s1`, the inhibition is 101% (inactive). The same measure, in the same setting: next, `COc1ccc2sc(N(CCCN(C)C)C(=O)c3ccc(S(=O)(=O)N4CCc5ccccc5C4)cc3)nc2c1`: 50% (inactive); `COc1ccc(-c2cc(NC=O)c3ncc(-c4cccc(OC)c4)n3c2)cc1`: 101% (inactive). On the same count and under the same terms, the same measure for `N#Cc1ccc(NC(=O)Nc2ccc(Oc3ccc(NC(=O)Nc4ccc(C#N)cc4)cc3)cc2)cc1`: 33.8% (inactive); for `Nc1c(C(=O)NCc2ccc(F)cc2)c2nc3ccccc3nc2n1CCCN1CCOCC1`: 72.5% (inactive); for `Brc1ccccc1C1Nc2cccc3cccc(c23)N1`: -2.38% (inactive). On the same count and under the same terms, next, `CCOC(=O)c1c(CSc2ccccc2)n(C)c2cc(Br)c(O)c(CN(C)C)c12`: 20.5% (inactive); `O=C(Nc1nc(-c2ccccc2)cs1)c1ccc2c(=O)n3c(nc2c1)CCCCC3`: 74.2% (inactive). In the case of `CC(=O)Nc1ccc2sn(-c3ccccc3)c(=O)c2c1`, the inhibition was 81.8% (inactive). Still for that read-out and setting: next, `Cc1c(C(=O)OCC(=O)Nc2cccc(S(N)(=O)=O)c2)oc2c1ccc1ccccc12`: 104% (inactive); `CCOc1ccc2nc(N(CCCN(C)C)C(=O)c3ccc(S(=O)(=O)N4CCc5ccccc5C4)cc3)sc2c1`: 37% (inactive). With `O=C(CCN1CCc2ccccc2C(c2ccccc2)C1)c1ccc2c(c1)OCCO2` (stereo not given), the inhibition is 101% (inactive). On the same count and under the same terms, the same measure for `CN(C)CCNC(=O)c1ccc(-c2cn3c(-c4ccc(Oc5ccccc5)cc4)cnc3cn2)cc1`: 81.6% (inactive); for `CCOC(=O)c1nnc(-c2ccccc2)nc1Sc1ccccc1Cl`: 66.7% (inactive). Same read-out and setting: the same measure for `O=[N+]([O-])c1cccc(-c2cc(-c3cc(Br)ccc3O)[nH]n2)c1`: 67.8% (inactive); for `CCc1ccc2nc(N(CCCN(C)C)C(=O)c3ccc(S(=O)(=O)N4CCc5ccccc5C4)cc3)sc2c1`: 81.8% (inactive). Regarding `Cc1ccc2c3c(cccc13)-c1ccccc1C2=O`, the inhibition is 4.2% (inactive). The same measure, in the same setting: next, `CC(=O)Nc1ccc2c(=O)n(-c3ccccc3)sc2c1`: 67.8% (inactive); `CCCCC[C@@H](C)N1C[C@H](COCc2ccccc2)Oc2cc(N3CC[C@@H](N(C)C)C3)ccc2S1(=O)=O`: 65% (inactive). Regarding `c1ccc(COc2ccc(-c3cc4nc(NCCCn5ccnc5)ccn4n3)cc2)cc1`, the inhibition was 106% (inactive).

For `O=C(Nc1ccc2nc(-c3cccs3)c(-c3cccs3)nc2c1)NC1CC1`, the inhibition is 68.3% (inactive). Same read-out and setting: next, `Cc1ccc(C(=O)N/C(=C\c2ccc(-c3ccc(Br)cc3)o2)C(=O)NCCCN(C)C)cc1`: -10.6% (inactive); `O=C1ON=C(c2ccccc2)/C1=C/c1ccc(-c2ccccc2[N+](=O)[O-])o1`: 102% (inactive); `CCOc1ccc(-c2cc(C(=O)NCCCn3ccnc3)c3cc(Br)ccc3n2)cc1`: 25.6% (inactive). For the molecule `Oc1ccccc1Nc1nc(NCc2ccco2)c2ccccc2n1`, the inhibition was 107% (inactive). Same read-out and setting: next, `Cc1ccc(-c2nn(-c3ccccc3)cc2CNCc2ccccc2)cc1`: 99.5% (inactive); `CCOc1ccc(Cl)cc1-c1cc(C(=O)NCc2cccs2)[nH]n1`: 79.8% (inactive). As to `CCN1CCN(Cc2ccc(NC(=O)c3cc(NC(=O)C(=O)c4c[nH]c5ccccc45)cc(OC)c3)cc2C(F)(F)F)CC1`, the inhibition was 81.8% (inactive). Same read-out and setting: next, `COc1ccc2nc3cc(Cl)ccc3c(Nc3ccc(O)c(CN4CCN(C)CC4)c3)c2c1`: 66.6% (inactive); `Cc1cc(F)ccc1S(=O)(=O)Nc1ccccc1C(=O)Nc1ccccc1-c1nc2ccccc2[nH]1`: 106% (inactive); `CCOc1cc(CNCCc2ccc(S(N)(=O)=O)cc2)ccc1OCc1ccc(Cl)cc1`: 48.5% (inactive).

For `CCOCCCNC(=S)N1CCCN(c2nc3c(C)c(C)ccc3cc2C#N)CC1`, the inhibition was 83.8% (inactive).

In the case of `CSc1cccc(NC(=S)N(CCCN2CCCC2)Cc2cccn2Cc2ccc(Cl)cc2)c1`, the inhibition is 65.2% (inactive). Same read-out and setting: next, `CC1(C(=O)OCC(=O)Nc2nc(-c3ccc(F)c(F)c3)cs2)CC1(Cl)Cl` (stereo not given): 95% (inactive).
